Assay results as given in patent publication US7875638B2, “Synthesis of epothilones, intermediates thereto, analogues and uses thereof” (Sloan-Kettering Institute for Cancer Research, priority 2002, dated 2011).
Converted amounts (≈) assume the structure as drawn. “Also recorded” adds a separate entry of the source. Where two headings read alike, the source gives them in different places.

Tests used:
[1] = test system: paclitaxel resistant human lung carcinoma A549/Taxol xenograft; conditions: 20 mg/kg
IGROV = assay: XTT cell growth inhibition, IGROV; type: cell-based; conditions: Homo sapiens, Ovarian Ca, XTT tetrazonium assay, read-out: IC50 (nM), IGROV
[2] = test system: human xenografts in nude mice, such as MX-1; design: Relative therapuetic index at MTD: key to the marks not given beside the values
[3] = test system: paclitaxel resistant human lung carcinoma A549/Taxol xenograft; conditions: 20 mg/kg, Q2Dx7, 6 hr-i.v. infusion; cited from earlier work
RPMI8226 = assay: XTT cell growth inhibition, RPMI8226; type: cell-based; conditions: Homo sapiens, RPMI-8226; Myeloma; XTT tetrazonium assay; read-out: IC50 (nM), RPMI8226
[4] = test system: RPMI8226 myeloma cell line; assay: Annexin V staining, RPMI8226; type: cell-based, human; conditions: 24 hours treatment
Excerpt: In early apoptotic cells, the membrance phospholipids phosphatidylserine (PS) is translocated from the inner to the outer leaflet of the plasma membrane, thereby exposing PS to the external cellular environment. Annexin V is a 35-36 kD Ca^+2 dependent phospholipid-binding protein that has a high affinity for PS, and binds to cells with exposed PS. In conjunction with a vital dye such as 7-amino-actinomycin (7-AAD) staining dead cells, this assay allows the identification of early apoptotic cells.

[5] = test system: myeloma cell lines (RPMI8226, CAG); assay: XTT cell proliferation, myeloma cell lines; type: cell-based, human
H929 = assay: XTT cell growth inhibition, H929; type: cell-based; conditions: Homo sapiens, NCI-H929; Myeloma; XTT tetrazonium assay; read-out: IC50 (nM), H929
[6] = test system: paclitaxel resistant human lung carcinoma A549/Taxol xenograft; assay: A549/Taxol xenograft in nude mice
CAG myeloma cells = assay: Disseminated CAG xenograft myeloma mice; conditions: 20 mg/kg
Protocol: 10×10^6 CAG myeloma cells engineered with Luc-eGFP-TK fusion gene were injected intravenously into the mouse-tail vein, and the treatment was started when decent myeloma cells implantation was detected by bioluminescence imaging on day 7.

RL = assay: XTT cell growth inhibition, RL; type: cell-based; conditions: Homo sapiens, Lymphoma, XTT tetrazonium assay, read-out: IC50 (nM), RL
HCT-116 = assay: XTT cell growth inhibition, HCT-116; type: cell-based; conditions: Homo sapiens, HCT-116; Colon Ca; XTT tetrazonium assay; read-out: IC50 (nM), HCT-116
in vitro [7] = conditions: mouse, plasma
Protocol: (§1) Stability of epothilones in mouse and in human liver S9 fraction. The stability study was carried out with a fully automated HPLC system which consisted of a Prospekt-2 (Spark Holland, Netherlands) sample preparation system and an Agilent 1100 HPLC system. Briefly, the Prospekt 2 picked up a C8 extraction cartridge and washed it with acetonitrile and water. The Agilent autosampler, set at 37° C., picked up 20 μl of the sample, loaded it onto the cartridge, washed it with water, then the Prospekt-2 diverted the mobile phase stream through the extraction cartridge onto the analytical column, Reliance Stable Bond C8 4×80 mm with guard column (MacMod, Chadds Ford, Pa.) and the eluent was monitored at 250 nm. […] Sample preparation involved the addition of equal volumes of plasma to PBS for a total volume of 300-400 μl, filtered, and the addition of 0.5-2 μl of the substrate (20 mM) to achieve about 30-50 mAU at 250 nm in the HPLC analysis. For pooled human liver microsome S9 fraction (Xeno Tech, Lenex, Kans.), 20 μl (400 μg) or S9 fraction was mixed with 280 μl of PBS then proceeded as above. The sampling period was controlled by the autosampler and peak area data were collected to compare the rate of disappearance of the parent compound.
(§2) Stability of epothilones in mouse and in human liver S9 fraction: The stability study was carried out with a fully automated HPLC system which consisted of a Prospekt-2 (Spark Holland, Netherlands) sample preparation system and an Agilent 1100 HPLC system. Briefly, the Prospekt 2 picked up a C8 extraction cartridge and washed it with acetonitrile and water. The Agilent autosampler, set at 37° C., picked up 20 μl of the sample, loaded it onto the cartridge, washed it with water, then the Prospekt-2 diverted the mobile phase stream through the extraction cartridge onto the analytical column, Reliance Stable Bond C8 4×80 mm with guard column (MacMod, Chadds Ford, Pa.) and the eluent was monitored at 250 nm. […] Sample preparation involves the addition of equal volumes of plasma to PBS for a total volume of 400 μl, filtered, and the addition of 0.5-2 μl of the substrate (20 mM) to achieve about 30-50 mAU at 250 nm in the HPLC analysis. For pooled human liver microsome S9 fraction (Xeno Tech, Lenex, Kans.), 20 μl (400 μg) or S9 fraction was mixed with 280 μl of PBS then proceeds as above. The sampling period was controlled by the autosampler and peak area data were collected to compare the rate of disappearance of the parent compound.

Solubility in water = conditions: water
[8] = test system: lymphoma lines (SKIDLBCL and RL); assay: XTT cell proliferation, lymphoma lines; type: cell-based, human
SKOV3 = assay: XTT cell growth inhibition, SKOV3; type: cell-based; conditions: Homo sapiens, SK-OV-3; Ovarian Ca; XTT tetrazonium assay; read-out: IC50 (nM), SKOV3
in vitro [9] = conditions: human, s9
Protocol: as §1, §2

MDA MB435 = assay: XTT cell growth inhibition, MDA MB435; type: cell-based; conditions: Homo sapiens, MDA-MB-435; Breast Ca; XTT tetrazonium assay; read-out: IC50 (nM), MDA MB435
HS-5 = assay: XTT cell growth inhibition, HS-5; type: cell-based; conditions: Homo sapiens, HS5; Marrow stroma; XTT tetrazonium assay; read-out: IC50 (nM), HS-5
[10] = test system: human mammary carcinoma MX-1 xenograft; conditions: mouse, in vivo
CAG myeloma cell lines = assay: Cell cycle analysis (propidium iodide DNA staining), CAG; type: cell-based, human; conditions: 31.25 nM
Excerpt: CAG myeloma cell lines were used.

[11] = test system: RPMI8226 myeloma cell lines; assay: Cell cycle analysis (propidium iodide DNA staining), RPMI8226; type: cell-based, human; conditions: 31.25 nM
Excerpt: RPMI8226 myeloma cell lines were used.

[12] = test system: human colon carcinoma HCT-116 xenograft; assay: HCT-116 xenograft in nude mice; conditions: for Tumor relapse during follow-up to D200: Fludelone 20 and 30 mg/kg; for Tumor free following the cessation of treatment: mouse, in vivo
[13] = test system: RPMI-8226 (human multiple myeloma cell line); assay: Global gene expression (Affymetrix chip AU133 2.0); type: cell-based
[14] = 6 hr gene difference, Fludelone vs dEpoB treated cells

Protocol for CCRF-CEM: Cytotoxicity Assays. In preparation for in vitro cytotoxicity assays, cells were cultured at an initial density 2-5×10^4 cells per milliliter. […] For both methods, the absorbance of each well was measured with a microplate reader (Power Wave XS, Bio-Tek, Winooski, Vt.).
A typical experiment involves culturing cells (e.g., CCRF-CEM) at an initial density of 2-5×10^4 cells per ml. […] For cells that were grown in suspension (such as CCRF-CEM and its sublines), cytotoxicitiy is measured by using the 2,-3-bis(2-methoxy-4-nitro-5-sulfophenyl)-5 carboxanilide)-2H terazodium hydroxide (XTT)-microculture tetrazonium method in duplicate in 96-well microtiter plates. For both methods, the absorbance of each well is measured with a microplate reader (EL-340, Bio-Tek, Burlington, Vt.). Each run entails six or seven concentrations of the tested drugs. Dose-effect relationship data are analyzed with the median-effect plot.
Cytotoxicity Assays: In preparation for in vitro cytotoxicity assays, cells were cultured at an initial density 2-5×10^4 cells per milliliter. […] For both methods, the absorbance of each well was measured with a microplate reader (Power Wave XS, Bio-Tek, Winooski, Vt.).

C/C(=C\c1csc(C)n1)[C@@H]1C/C=C(/C(F)(F)F)C/C=C/[C@H](C)[C@H](O)[C@@H](C)C(=O)C(C)(C)[C@@H](O)CC(=O)O1 [Compound 29, 26-trifluoro-trans-9,10-dehydro-12,13-desoxyepothilone B]
Tumor reduction, % of the pretreatment control [1]: 24.4% | IC50 (IGROV): 2 ± 1.2 nM | Maximal b.w. % drop without death ([2]; mouse, in vivo): 33% | Relative therapuetic index at MTD ([2]; mouse, in vivo): +++++ | Curative therapeutic dose range ([2]; mouse, in vivo, iv): 10 to 30 mg/kg | Optimal dose for i.v. infusion ([2]; mouse, in vivo, iv): 20 to 30 mg/kg | Therapeutic dose regimen for Q2D 6 hr-iv infusion ([2]; mouse, in vivo, iv): 10 to 30 mg/kg | Optimal dose for the oral administration ([2]; oral): 20 mg/kg, QD or 30 mg/kg Q2D | Effect on A549/Taxol xenograft (recent report) [3]: complete tumor growth suppression but failed to achieve tumor disappearance | IC50 (RPMI8226): 7.6 ± 1.2 nM | Apoptosis (Annexin V / 7-AAD) [4]: majority of cell either enter apoptosis or are dead | Potency relative to dEpoB on MM cell lines [5]: ~5 fold | IC50 ([5]; Homo sapiens, RPMI-8226, read-out: IC50, myeloma cell lines (RPMI8226, CAG)): 7.6 to 36.7 nM | IC50 (H929): 9.2 ± 1.9 nM | Body weight recovery upon suspension of drug treatment, % of the pretreatment control ([6]; 20 mg/kg): 90% | Maximal body weight decrease ([6]; 20 mg/kg): 24% | Tumor growth suppression ([6]; 29: 20 mg/kg, 28: 4 mg/kg): totally suppressed | Survival after transplanting CAG cells (Kaplan-Meier) (CAG myeloma cells): > 80 days | Survival versus controls (CAG myeloma cells; intraperitoneal): at least doubled the survival time than controls | Tumor burden by bioluminescence imaging (CAG myeloma cells; listed as Fludelone): significant decreased tumor photon emissions; also recorded: significantly decreased tumor burden | IC50 (RL): 80 ± 11 nM | IC50 (HCT-116): 3.6 ± 1.3 nM | Attenuation of cytotoxicity by the three fluorine atoms at C26, factor (CCRF-CEM): ≤ 4 | IC50 (CCRF-CEM; human): 0.0032 ± 0.0003 µM | Cytotoxicity relative to the benchmark compound dEpoB (CCRF-CEM; in the cell): ~1.8 fold | IC50 (CCRF-CEM; read-out: IC50 (μM), CCRF-CEM, XTT assay following 72 h inhibition, Table 1-2): 0.0035 µM | IC50 (CCRF-CEM; read-out: IC50, CCRF-CEM(C), XTT assay following 72 h inhibition, Table 1-3): 0.0035 µM | half-life (in vitro [7]): 3.53 ± 1.47 h | solubility (Solubility in water): 20 µg/mL (≈ 36.8 µM) | Inhibitory doses in two NHL lines relative to doses effective in MM [8]: 5-10 fold | IC50 ([8]; Homo sapiens, XTT): 60 to 80 nM | IC50 (SKOV3): 1.6 ± 0.5 nM | half-life (in vitro [9]): 10.5 ± 2.3 h | IC50 (MDA MB435): 5.8 ± 2.8 nM | IC50 (HS-5): 96 ± 7 nM | Maximal body weight decrease [10]: Only minor loss of body weight | Maximal drop of the body weight ([10]; po, 30 mg/kg): 15% | Cell cycle arrest (CAG myeloma cell lines): absolutely blocked cell cycle at G2M phase | Cell cycle arrest [11]: absolutely blocked cell cycle at G2M phase | Maximal body weight loss without lethality ([12]; 30 mg/kg, end of the 2nd cycle (D29)): 30% | Tumor relapse during follow-up to D200 ([12]; Taxol 20 mg/kg): no tumor relapse | Tumor relapse during follow-up to D200 ([12]; Taxol 20 mg/kg, listed as F3-deH-dEpoB): no tumor relapse in 4 out of 4 mice on D200 | Tumor disappearance (mice) ([12]; Q2Dx4, 6 hr-i.v. infusion for 3 cycles, F3-deH-dEpoB 20 and 30 mg/kg, Taxol 20 mg/kg): 4 out of 4 | Tumor free following the cessation of treatment ([12]; listed as 26-trifluoro-9,10-trans-dehdyro-epothilone D): over 5.2 months | Tumor free following the cessation of treatment ([12]; listed as Fludelone): over 5.3 months | Fold change in expression, APP ([13]; 6 h): +2.14 fold | Fold change in expression, BASP1 ([13]; 6 h): +2.83 fold | Fold change in expression, HIST1 ([13]; 6 h): −2.00 fold | Fold change in expression, HNRPD ([13]; 6 h): −2.46 fold | Fold change in expression, JUN ([13]; 6 h): +3.25 fold | Fold change in expression, SKIL ([13]; 6 h): +2.83 fold | Fold change in expression, SUV39 H2 ([13]; 6 h): −2.00 fold | Fold change, AIM2 ([13]; 6 h): −2.64 fold | Fold change, BCL3 ([13]; 6 h): +3.25 fold | Fold change, CA4 ([13]; 6 h): −2.14 fold | Fold change, HLA-II DPα ([13]; 6 h): −3.73 fold | Fold change, Heme oxygenase ([13]; 6 h): +2.30 fold | Fold change, PTPL ([13]; 6 h): −2.46 fold | Fold change, T RIM34 ([13]; 6 h): −5.66 fold | Fold change, TRIM22 ([13]; 6 h): −2.46 fold | Fold change, GIP3 [13, 14]: −6.06 fold | Fold change, IFI 27 [13, 14]: −7.46 fold | Fold change, IFTM1 [13, 14]: −4.00 fold | Fold change, MX1 [13, 14]: −2.00 fold | Fold change in expression, AIP1 ([13]; 18 h): +2.14 fold
